Assay results: publication PMC9497135, “Structure-Based Study to Overcome Cross-Reactivity of Novel Androgen Receptor Inhibitors” (Cells, 2022)

Experiments:
wild-type AR = molecular target: T1, wild-type AR (Homo sapiens, UniProt P10275); test: Luciferase reporter assay, PC3 cells transfected with wild-type AR; type: cell-based; conditions: in the presence of R1881
T1 construct: Full-length human wild type AR was cloned into pcDNA3.1 expression plasmid; expressed in transfected cells; host or cells: PC3
T1 sequence (P10275 1-920): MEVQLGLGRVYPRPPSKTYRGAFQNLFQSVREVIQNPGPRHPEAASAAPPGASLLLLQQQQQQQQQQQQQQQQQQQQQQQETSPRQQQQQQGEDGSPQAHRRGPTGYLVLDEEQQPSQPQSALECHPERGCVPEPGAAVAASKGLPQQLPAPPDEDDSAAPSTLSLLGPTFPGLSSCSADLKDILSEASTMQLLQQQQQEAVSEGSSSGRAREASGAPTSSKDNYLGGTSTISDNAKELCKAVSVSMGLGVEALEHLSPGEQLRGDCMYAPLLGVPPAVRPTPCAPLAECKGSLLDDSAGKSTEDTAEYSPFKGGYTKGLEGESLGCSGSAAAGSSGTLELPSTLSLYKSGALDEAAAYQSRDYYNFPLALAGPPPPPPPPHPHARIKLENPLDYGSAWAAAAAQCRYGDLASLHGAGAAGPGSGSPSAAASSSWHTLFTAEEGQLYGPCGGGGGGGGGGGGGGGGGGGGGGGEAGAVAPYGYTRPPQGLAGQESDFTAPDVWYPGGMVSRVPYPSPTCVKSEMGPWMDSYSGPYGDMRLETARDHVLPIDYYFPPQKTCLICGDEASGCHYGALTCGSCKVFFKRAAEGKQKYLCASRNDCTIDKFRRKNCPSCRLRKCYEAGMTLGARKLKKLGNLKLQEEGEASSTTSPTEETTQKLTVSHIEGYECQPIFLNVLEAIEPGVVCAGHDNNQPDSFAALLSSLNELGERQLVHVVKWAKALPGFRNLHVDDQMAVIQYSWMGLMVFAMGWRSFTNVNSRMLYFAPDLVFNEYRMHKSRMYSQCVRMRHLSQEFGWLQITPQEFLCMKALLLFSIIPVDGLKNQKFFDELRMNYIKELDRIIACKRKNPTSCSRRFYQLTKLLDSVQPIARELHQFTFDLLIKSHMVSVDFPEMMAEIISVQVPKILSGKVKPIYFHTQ
Method: Full-length human wild type AR was cloned into pcDNA3.1 expression plasmid (Invitrogen, Waltham, MA, USA) with a CMV promoter. The T878A mutant (T878A-AR) was generated with the Quikchange Mutagenesis Kit (Stratagene, San Diego, CA, USA) using hARWT plasmid as a template. Androgen-starved PC3 cells were seeded in 96-well plates (3000 cells/well) in RPMI 1640 + 5% CSS for 24 h followed by transfection with 50 ng of hARWT or hART878A along with 50 ng of ARR3tk-luciferase reporter construct (100 ng total plasmid DNA) and 0.3 µL/well TransIT20/20 transfection reagent (TT2020, Mirus, Madison, Wisconsin, WI, USA) for 48 h. Cells were treated with increasing amounts of test compound (0.1% final DMSO concentration) and 0.1 nM R1881 for 24 h. Cell lysis was carried out with 60 µL 1X passive lysis buffer/well (Promega, Madison, Wisconsin, WI, USA). The luminescence from 20 µL of cell lysate and 50 µL of Luciferase assay reagent (Promega, Madison, Wisconsin, WI, USA) was recorded on a TECAN M200pro plate reader.

T878A AR LBD = molecular target: T2, T878A AR LBD (Homo sapiens, UniProt P10275, T878A); test: Biolayer interferometry (BLI), T878A LBD; type: binding
T2 construct: made in house; host or cells: E. coli BL21-DE3 co-transformed with pBirACm
T2 sequence (P10275 669-900 T878A limits assumed): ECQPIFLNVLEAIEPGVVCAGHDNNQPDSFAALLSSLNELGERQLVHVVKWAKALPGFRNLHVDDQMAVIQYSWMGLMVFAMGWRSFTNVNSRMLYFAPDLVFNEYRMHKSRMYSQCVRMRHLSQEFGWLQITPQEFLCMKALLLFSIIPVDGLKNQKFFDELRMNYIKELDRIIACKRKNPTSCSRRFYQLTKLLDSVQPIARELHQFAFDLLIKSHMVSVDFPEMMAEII
Method: The direct reversible interaction between small molecules and the AR was quantified by BLI using OctetRED (ForteBio, Fremont, CA, USA). The wild type and T878A-LDB in fusion with an N-terminal (His)6-avidin ([…]) tag were expressed in E. coli BL21-DE3 cells co-transformed with pBirACm plasmid (Avidity), which expresses a biotin ligase leading to the biotynilation of the avidin tag on the LBD. Cells were grown in LB media at 37 °C to an OD600nm = 0.5 and then induced with 0.5 mM isopropyl-β-D-thiogalactoside. A measure of 20 µM of dihydrotestosterone (DHT) and 0.15 mM biotin were added and the cells were incubated at 16 °C for 18 to 20 h. Cells were then resuspended and lysed in buffer containing 500 mM Li2SO4, 50mM HEPES pH7.2, 10% Glycerol, 0.1% Octyl-beta-Glucoside, 20 µM of DHT, 5 mM β-mercaptoethanol, 10 mM imidazole and 0.1 mM phenylmethanesulfonyl fluoride. […] After an overnight dialysis against 150 mM Li2SO4, 50 mM HEPES pH7.2, 10% Glycerol, 0.1% Octyl-beta-Glucoside, 20 µM of DHT and 0.2 mM tris(2-carboxyethyl)phosphine, purified proteins at 50 µg/mL were bound to the super-streptavidin sensors overnight at 4 °C. The assay was performed at 20 °C in the dialysis buffer supplemented with 5% dimethyl sulfoxide (DMSO) which was also used as our reference measurement.

COc1c(F)cccc1-c1csc(N2CCOCC2)n1 [VPC14368, 4-(4-(3-fluoro-2-methoxyphenyl)thiazol-2-yl)morpholine]
AR transcription, wild-type AR (wild-type AR): inhibited by VPC14368 in a dose-dependent manner | Direct binding to T878A LBD by BLI (T878A AR LBD): confirmed at high concentrations and in a concentration-dependent manner | Concentration at which binding is seen (BLI) (T878A AR LBD; Figure 2, 50-300 µM tested): above 100 µM
